# Results taken from BindingDB's records for doi:10.1016/j.chembiol.2007.10.011 (Vanderbilt University, 2007).
# pKd: −log10 of the molar value. Where “and” joins values, the source holds several entries; their conditions need not be identical. Identical values can stand only once.
# Columns and labels:
# [1] = molecular target: Lanosterol 14-alpha-demethylase (Trypanosoma brucei brucei (strain 927/4 GUTat10.1), UniProt Q385E8); experiment: Inhibition Assay; settings: pH 6
# [2] = molecular target: Sterol 14-alpha demethylase (Trypanosoma cruzi (strain CL Brener), UniProt Q7Z1V1); experiment: Inhibition Assay; settings: pH 6
# Chain of Sterol 14-alpha demethylase (Q7Z1V1 whole entry): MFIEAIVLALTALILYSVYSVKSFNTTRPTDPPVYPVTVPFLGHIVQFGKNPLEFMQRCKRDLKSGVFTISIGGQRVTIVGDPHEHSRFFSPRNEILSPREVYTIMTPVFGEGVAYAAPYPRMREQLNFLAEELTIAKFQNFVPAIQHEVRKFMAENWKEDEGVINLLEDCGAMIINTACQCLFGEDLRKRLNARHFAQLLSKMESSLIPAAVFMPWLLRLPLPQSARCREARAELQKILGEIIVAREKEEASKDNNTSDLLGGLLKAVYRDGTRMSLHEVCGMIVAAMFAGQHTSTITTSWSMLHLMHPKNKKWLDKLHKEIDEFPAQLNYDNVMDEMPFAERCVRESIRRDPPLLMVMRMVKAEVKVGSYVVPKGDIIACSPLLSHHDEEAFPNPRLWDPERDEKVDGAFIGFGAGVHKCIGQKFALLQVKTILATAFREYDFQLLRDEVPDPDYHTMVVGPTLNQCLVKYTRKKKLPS
# Chain of Lanosterol 14-alpha-demethylase (Q385E8 whole entry): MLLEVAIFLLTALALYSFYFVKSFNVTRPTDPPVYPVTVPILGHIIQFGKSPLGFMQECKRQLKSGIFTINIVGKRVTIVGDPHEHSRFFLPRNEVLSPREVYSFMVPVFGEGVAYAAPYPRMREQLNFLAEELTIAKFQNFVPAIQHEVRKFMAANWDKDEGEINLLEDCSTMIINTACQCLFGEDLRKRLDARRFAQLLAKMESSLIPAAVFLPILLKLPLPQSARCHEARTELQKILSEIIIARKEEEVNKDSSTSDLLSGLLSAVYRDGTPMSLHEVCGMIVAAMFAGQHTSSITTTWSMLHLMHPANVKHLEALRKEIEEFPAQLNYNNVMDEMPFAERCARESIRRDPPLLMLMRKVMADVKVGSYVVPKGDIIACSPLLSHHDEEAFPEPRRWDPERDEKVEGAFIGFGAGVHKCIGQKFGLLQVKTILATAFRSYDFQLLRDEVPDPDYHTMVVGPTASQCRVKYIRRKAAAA
SMILES,pKd [1],pKd [2]
"CC(=O)N1CCN(c2ccc(OC[C@H]3CO[C@](Cn4ccnc4)(c4ccc(Cl)cc4Cl)O3)cc2)CC1 [24F2-1,25(OH)D3]",5.64,–
"O=C(NCC(c1ccc(Cl)cc1)(c1ccc(Cl)cc1)n1ccnc1)c1ccccc1 [Azole, 1]",6.00,6.49
"O=C(NC(Cn1ccnc1)c1ccc(Cl)cc1Cl)c1nnc(-c2ccccc2)o1 (centres undefined) [Azole, 2]",7.05 and 7.00,–
"O=C(NC(Cn1ccnc1)c1ccc(Cl)cc1Cl)c1nnc(-c2ccccc2)o1 (centres undefined) [Azole, 3]",6.85,6.85
"O=C(NC(Cn1ccnc1)c1ccccc1)c1ccc(-c2ccc(Cl)cc2)cc1 (centres undefined) [Azole, 4]",7.30,7.15
"O=C(NCC(c1ccccc1)n1ccnc1)c1cnc[nH]1 (centres undefined) [Azole, 5]",5.72,5.92
"O=C(NCC(c1ccccc1)n1ccnc1)c1cccc2c1oc1ccccc12 (centres undefined) [Azole, 6]",6.68,6.89
"O=C(NCC(c1ccccc1)n1ccnc1)c1ccc2sc3ccccc3c(=O)c2c1 (centres undefined) [Azole, 7]",6.51,6.42
"O=C(NCC(c1ccccc1)n1ccnc1)c1csc(-c2ccc(Cl)cc2)c1 (centres undefined) [Azole, 8]",6.68,6.96
"COc1cccc(Sc2ccc(C(=O)NCC(c3ccccc3)n3ccnc3)cc2)c1 (centres undefined) [Azole, 9]",7.15,7.05
"O=C(NCC(c1ccccc1)n1ccnc1)c1cccc(Sc2ccccc2)c1 (centres undefined) [Azole, 10]",7.30,7.30
"COc1ccc(CC(CNC(=O)c2ccc(-c3ccc(Cl)cc3)cc2)n2ccnc2)cc1 (centres undefined) [Azole, 11]",6.15,6.96
"O=C(NCC(c1ccccc1)n1ccnc1)c1ccc(-c2ccc(Cl)cc2)cc1 (centres undefined) [Azole, 12]",7.40,7.15
"CCCCOc1ccc(-c2ccc(C(=O)NC(Cn3ccnc3)c3ccc(Cl)cn3)cc2)cc1 (centres undefined) [Azole, 17]",7.10,6.96
"O=C(NC(Cn1ccnc1)c1ccc(Cl)cn1)c1ccc(-c2ccc(Cl)cc2)cc1 (centres undefined) [Azole, 19]",7.05,7.22
"O=C(NC(Cn1ccnc1)c1ccc(Cl)cn1)c1ccc(-c2ccc(Cl)cc2)cc1 (centres undefined) [Azole, 20]",–,7.15
